Experimental data: publication PMC9481026 (PLoS ONE, 2022)
pEC50, pIC50: −log10 of the molar value. ≈ marks a conversion by molar mass, not a printed value. Where two headings read alike, the source gives them in different places.

Tests used:
in vitro [1] = conditions: African green monkey, Vero CC50
LACV = test: microbe, parasite or virus in culture; type: cell-based, La Crosse virus
in vitro [2] = conditions: human
Staphylo-coccus spp. = test: organism not typed; type: cell-based; conditions: read-out: Staphylo-coccus spp. (MIC80, μM)
ZIKV = test: microbe, parasite or virus in culture; type: cell-based, Zika virus
RVFV MP-12 = test: microbe, parasite or virus in culture; type: cell-based, Rift Valley fever virus; conditions: Rift Valley fever virus, Vero, read-out: Estimated EC50
RVFV strain MP-12 [3] = test: microbe, parasite or virus in culture; type: cell-based, Rift Valley fever virus; conditions: Rift Valley fever virus, Vero
E. coli = test: microbe, parasite or virus in culture; type: cell-based; conditions: Escherichia coli, read-out: E. coli (MIC80, μM)
Vero cells = conditions: African green monkey
RVFV strain MP-12 [4] = test: microbe, parasite or virus in culture; type: cell-based, Rift Valley fever virus; conditions: Rift Valley fever virus, A549, 24 h, read-out: A549 EC50
C. neoformans = test: microbe, parasite or virus in culture; type: cell-based; conditions: Cryptococcus neoformans, read-out: C. neoformans (MIC80, μM)
Human RNase H1 = molecular target: T1, Human RNase H1 (Homo sapiens, UniProt O60930); test: biochemical
T1 construct: made in house; host or cells: E. coli
T1 sequence (O60930 1-286): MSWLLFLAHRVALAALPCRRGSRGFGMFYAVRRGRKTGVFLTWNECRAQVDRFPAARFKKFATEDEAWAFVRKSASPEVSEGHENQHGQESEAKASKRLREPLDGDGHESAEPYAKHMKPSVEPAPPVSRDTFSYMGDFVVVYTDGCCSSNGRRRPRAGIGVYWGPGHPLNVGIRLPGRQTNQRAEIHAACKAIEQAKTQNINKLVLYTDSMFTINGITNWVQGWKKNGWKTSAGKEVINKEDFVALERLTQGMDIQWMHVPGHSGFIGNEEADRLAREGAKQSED

RVFV ZH501 = test: microbe, parasite or virus in culture; type: cell-based, Rift Valley fever virus; conditions: Rift Valley fever virus, Vero, 18 h

In the case of Cc1cc(O)c(=O)c(O)cc1C(=O)c1cccs1 [Compound 308], the CC50 (in vitro [1]) was > 120 µM, the “LACV EC50” value (LACV) was “activity against LACV” and the pEC50 (LACV; La Crosse virus, Vero C1008, 24 h, read-out: LACV EC50) was 4.82. For the same compound, the CC50 (in vitro [2]) was 119 µM, the MIC80 (Staphylo-coccus spp.) was 44 µM (≈ 11.5 µg/mL) and the “ZIKV EC50” value (ZIKV) was “not the unrelated flavivirus, Zika virus”. For the same compound, the pEC50 (ZIKV; Zika virus, Vero C1008, 48 h, read-out: ZIKV EC50) was < 3.92, the pEC50 (RVFV MP-12) was 5.75 and the pEC50 (RVFV strain MP-12 [3]; 24 h) was 5.92. It also gave an EC50 (RVFV strain MP-12 [3]; read-out: RVFV (EC50, μM)) of 1.16 µM, a pEC50 (RVFV strain MP-12 [3]; read-out: Vero EC50) of 5.92 and an MIC80 (E. coli) of 25 µM (≈ 6.56 µg/mL). For the same compound, the CC50 (Vero cells) was 111 µM, the pEC50 (RVFV strain MP-12 [4]) was 5.08 and the MIC80 (C. neoformans) was 11 µM (≈ 2.89 µg/mL). The pIC50 (Human RNase H1) was 4.34 and the pEC50 (RVFV ZH501) was 4.27.
